Test systems include SNB-75 CNS; HOP-92 NSCLC; OVCAR-3 ovarian; SN12C renal; HCT-116 colon; SK-MEL-28 melanoma; SF-295 CNS; RPMI-8226 leukemia; SR leukemia; CCRF-CEM leukemia.
Holding throughout (assay): growth of human tumour cells (NCI), 48 h

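How tested: cells in 96-well plates exposed to compound for 48 hours at five concentrations. GI50: concentration for 50% inhibition of growth. TGI: concentration producing complete growth inhibition.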

`COc1ccc(-c2cc(-c3cccn3C)c(C#N)c(N)n2)cc1OC`: the GI50 is 21.1 µM in the assay on SNB-75 CNS; 5.16 µM in the assay with HOP-92 NSCLC; over 100 µM in the assay on OVCAR-3 ovarian; 66.9 µM in the assay with SN12C renal; 91.1 µM with HCT-116 colon; over 100 µM with SK-MEL-28 melanoma. For the same compound, the GI50 in the assay on SF-295 CNS was over 100 µM; in the assay on RPMI-8226 leukemia, 38.5 µM. The TGI was 70.9 µM with SNB-75 CNS; over 100 µM in the assay with HOP-92 NSCLC; over 100 µM with OVCAR-3 ovarian; over 100 µM in the assay on SN12C renal; over 100 µM in the assay on HCT-116 colon; over 100 µM with SK-MEL-28 melanoma. Besides, the TGI in the assay on SF-295 CNS and with RPMI-8226 leukemia was over 100 µM in each case.
As for `CC(=O)Oc1ccc(Nc2c3ccccc3nc3ccccc23)cc1`, the GI50 was 0.544 µM in the assay with SNB-75 CNS; 0.355 µM with SR leukemia; 2.14 µM in the assay on OVCAR-3 ovarian; 1.42 µM in the assay with SN12C renal; 0.613 µM with HCT-116 colon; 1.58 µM in the assay with SK-MEL-28 melanoma. For the same compound, the figures for the GI50 in the assay on SF-295 CNS and in the assay on RPMI-8226 leukemia were 0.914 µM and 2.25 µM, respectively. Moreover, the TGI is 5.08 µM with SNB-75 CNS; over 100 µM in the assay on SR leukemia; 6.48 µM in the assay with OVCAR-3 ovarian; 10.3 µM with SN12C renal; 4.11 µM in the assay with HCT-116 colon; 3.92 µM with SK-MEL-28 melanoma. Moreover, the TGI is 7.94 µM in the assay with SF-295 CNS and 23.7 µM in the assay on RPMI-8226 leukemia.
`O=C(CN1CCCCC1)N1CCc2c([nH]c3ccccc23)C1c1cccnc1` (configuration not stated): the TGI with SNB-75 CNS, with HOP-92 NSCLC, in the assay with OVCAR-3 ovarian, in the assay on SN12C renal, in the assay on HCT-116 colon and with SK-MEL-28 melanoma was over 100 µM each time. Further, the TGI in the assay with SF-295 CNS, in the assay on CCRF-CEM leukemia and in the assay with RPMI-8226 leukemia was over 100 µM each time.
For the compound `O=C(/C=C/c1c(O)ccc2ccccc12)c1ccc2ccccc2c1`, the TGI with SNB-75 CNS, in the assay with HOP-92 NSCLC, in the assay with OVCAR-3 ovarian, in the assay on SN12C renal, in the assay on HCT-116 colon and in the assay with SK-MEL-28 melanoma was over 100 µM in each case. For the same compound, the TGI with SF-295 CNS, with CCRF-CEM leukemia and in the assay on RPMI-8226 leukemia was over 100 µM throughout.
With `NC1CCCC[C@H]1N.N[C@@H]1CCCC[C@@H]1N.O=C(P(=O)([O-])[O-])P(=O)([O-])[O-].[Pt+4].[Pt+4]`, the GI50 was over 100 µM in the assay with SNB-75 CNS; over 100 µM in the assay with HOP-92 NSCLC; over 100 µM in the assay on OVCAR-3 ovarian; over 100 µM in the assay with SN12C renal; 83.8 µM with HCT-116 colon; over 100 µM in the assay with SK-MEL-28 melanoma. Further, the GI50 in the assay with SF-295 CNS is 96.7 µM; in the assay with CCRF-CEM leukemia it was 14.1 µM; in the assay on RPMI-8226 leukemia, 31.1 µM. Besides, the TGI in the assay with SNB-75 CNS, in the assay on HOP-92 NSCLC, with OVCAR-3 ovarian, with SN12C renal, with HCT-116 colon and in the assay with SK-MEL-28 melanoma was over 100 µM each time. Besides, the TGI in the assay with SF-295 CNS, in the assay on CCRF-CEM leukemia and in the assay with RPMI-8226 leukemia was over 100 µM each time.
With `CSC1(CC(=O)N(C)C)C(=O)Nc2ccccc21` (configuration not stated), the TGI with SNB-75 CNS, in the assay on SR leukemia, in the assay on OVCAR-3 ovarian, in the assay with HCT-116 colon, in the assay with SK-MEL-28 melanoma and in the assay with SF-295 CNS was over 100 µM each time. The compound further came in with a TGI in the assay with RPMI-8226 leukemia of over 100 µM.
Take `COc1cc2c(cc1OC)C13CCN4CC5=CCOC6CC(=O)N2C1C6C5CC43O` (configuration not stated): the TGI in the assay with SNB-75 CNS, in the assay with HOP-92 NSCLC, with OVCAR-3 ovarian, in the assay with SN12C renal, in the assay on HCT-116 colon and in the assay with SK-MEL-28 melanoma was over 100 µM in each case. Besides, the TGI with SF-295 CNS, with CCRF-CEM leukemia and with RPMI-8226 leukemia was over 100 µM in each case.
Consider `O=S(O)CCCCSSCc1ccccc1CSSCCCCS(=O)O`, for which the TGI in the assay with SNB-75 CNS is over 100 µM; in the assay with HOP-92 NSCLC, 74.7 µM; in the assay with OVCAR-3 ovarian it was 25.2 µM; with SN12C renal it was over 100 µM; in the assay on SK-MEL-28 melanoma, 31.9 µM; in the assay on SF-295 CNS, 49.8 µM. The TGI in the assay with CCRF-CEM leukemia came to 42.5 µM; with RPMI-8226 leukemia, 45.8 µM.
Consider `OCCCCC#Cc1ccccc1C#Cc1cccc(O)c1`, for which the GI50 with SNB-75 CNS is 16.1 µM; in the assay on HOP-92 NSCLC, 19.8 µM; with OVCAR-3 ovarian, 20 µM; in the assay with SN12C renal, 17.9 µM; in the assay on HCT-116 colon, 15.5 µM; with SK-MEL-28 melanoma it was 14.2 µM. Also, the GI50 in the assay with SF-295 CNS is 21 µM; in the assay on CCRF-CEM leukemia it was 18.8 µM; in the assay with RPMI-8226 leukemia, 20.7 µM. The TGI in the assay on SNB-75 CNS turned out to be 38.1 µM; in the assay with HOP-92 NSCLC, 40.7 µM; with OVCAR-3 ovarian, 44.1 µM; with SN12C renal it was 40 µM; in the assay on HCT-116 colon, 30 µM; with SK-MEL-28 melanoma, 28.2 µM. The TGI in the assay on SF-295 CNS was 41.7 µM; in the assay on CCRF-CEM leukemia it was 48.6 µM; with RPMI-8226 leukemia, 53.7 µM.
As for `COc1cc(/C=C2\C(=O)Nc3ccc(F)cc32)cc(OC)c1OC`, the GI50 in the assay with SNB-75 CNS is 9.18 µM; in the assay on HOP-92 NSCLC it was 5.07 µM; in the assay with OVCAR-3 ovarian, 22.8 µM; in the assay with SN12C renal, 51.8 µM; with HCT-116 colon it was 21.2 µM; with SK-MEL-28 melanoma it was 56.7 µM. In addition, the values for the GI50 in the assay with SF-295 CNS, in the assay on CCRF-CEM leukemia and with RPMI-8226 leukemia were over 100 µM, 23.3 µM and 56.8 µM, respectively. The TGI is 79.3 µM with SNB-75 CNS; 42.8 µM in the assay on HOP-92 NSCLC; over 100 µM with OVCAR-3 ovarian; over 100 µM with SN12C renal; over 100 µM in the assay with HCT-116 colon; over 100 µM in the assay on SK-MEL-28 melanoma. For the same compound, the TGI in the assay on SF-295 CNS, in the assay with CCRF-CEM leukemia and with RPMI-8226 leukemia was over 100 µM in each case.
Consider `NC(N)=N/N=C/c1cc(Cl)cc(Cl)c1O`, for which the TGI in the assay with SNB-75 CNS was 89.1 µM; in the assay with HOP-92 NSCLC it was over 100 µM; in the assay on OVCAR-3 ovarian, over 100 µM; in the assay with SN12C renal, over 100 µM; in the assay on HCT-116 colon, over 100 µM; in the assay with SK-MEL-28 melanoma, over 100 µM. Also, the TGI with SF-295 CNS, in the assay with CCRF-CEM leukemia and in the assay on RPMI-8226 leukemia was over 100 µM each time.
